Reference: US8952024B2, “Herbicidal pyrimidone derivatives” (E I du Pont de Nemours and Company, priority 2009, dated 2015)

Assays:
Format in all cases: in vivo
[1] = test system: prickly sida (Sida spinosa); assay: Test D pre-/postemergence plant response
Procedure, shortened: (§1)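 Under greenhouse conditions for 14 to 21 days, plants treated pre- or postemergence with surfactant-formulated compound were compared by eye with untreated controls and scored 0–100 (100 = complete control; dash = no result).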

[2] = test system: spanishneedles (Bidens bipinnata); assay: Test D pre-/postemergence plant response
Procedure, shortened: as §1

[3] = test system: quackgrass (Elytrigia repens); assay: Test D pre-/postemergence plant response
Procedure, shortened: as §1

[4] = test system: bermudagrass (Cynodon dactylon); assay: Test D pre-/postemergence plant response
Procedure, shortened: as §1

[5] = test system: dayflower (Virginia (VA) dayflower, Commelina virginica); assay: Test D pre-/postemergence plant response
Procedure, shortened: as §1

[6] = test system: sandbur (southern sandbur, Cenchrus echinatus); assay: Test D pre-/postemergence plant response
Procedure, shortened: as §1

[7] = test system: groundsel (common groundsel, Senecio vulgaris); assay: Test D pre-/postemergence plant response; details: Postemergence
Procedure, shortened: as §1

[8] = test system: ragweed (common ragweed, Ambrosia elatior); assay: Test D pre-/postemergence plant response
Procedure, shortened: as §1

[9] = test system: dallisgrass (Paspalum dilatatum); assay: Test D pre-/postemergence plant response
Procedure, shortened: as §1

[10] = test system: Russian thistle (Salsola kali); assay: Test D pre-/postemergence plant response
Procedure, shortened: as §1

[11] = test system: nightshade (eastern black nightshade, Solanum ptycanthum); assay: Test B pre-/postemergence plant response; details: Preemergence; for Nightshade plant response rating: 250 g ai/ha, 0 to 100 scale
Procedure, shortened: (§2)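 Greenhouse herbicide screen. Pre- and postemergence (1- to 4-leaf) spray of compound in solvent/surfactant mixture; loam–sand soil for pre, peat/vermiculite medium for post. Visual control rating 0–100 at 13 to 15 days after treatment.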

[12] = test system: sunflower (common oilseed sunflower, Helianthus annuus); assay: Test B pre-/postemergence plant response; details: Preemergence; for Sunflower plant response rating: 250 g ai/ha, 0 to 100 scale
Procedure, shortened: as §2

[13] = test system: galium (catchweed bedstraw, Galium aparine); assay: Test B pre-/postemergence plant response; details: Preemergence; for Galium plant response rating: 250 g ai/ha, 0 to 100 scale
Procedure, shortened: as §2

[14] = Postemergence, 31 g ai/ha, scale 0 to 100
[15] = Postemergence, 62 g ai/ha, scale 0 to 100 (0 no effect, 100 complete control)
[16] = Postemergence, 125 g ai/ha, scale 0 to 100 (0 no effect, 100 complete control)
[17] = Postemergence, 250 g ai/ha, scale 0 to 100 (0 no effect, 100 complete control)
[18] = Preemergence, 62 g ai/ha, scale 0 to 100
[19] = Preemergence, 125 g ai/ha, scale 0 to 100
[20] = Preemergence, 250 g ai/ha, scale 0 to 100
[21] = 62 g ai/ha, scale 0 to 100 (0 no effect, 100 complete control)
[22] = 125 g ai/ha, scale 0 to 100 (0 no effect, 100 complete control)
[23] = 250 g ai/ha, scale 0 to 100 (0 no effect, 100 complete control)
[24] = 31 g ai/ha, scale 0 to 100 (0 no effect, 100 complete control)
[25] = 125 g ai/ha, scale 0 to 100, 0 no effect, 100 complete control

COCCn1c(-c2cc(F)cc(F)c2)ncc(C(=O)C2=C(O)C3CCC(C3)C2=O)c1=O (stereo not drawn) [Compound 243, 2-(3,5-difluorophenyl)-5-[(2-hydroxy-4-oxobicyclo[3.2.1]oct-2-en-3-yl)carbonyl]-3-(2-methoxyethyl)-4(3H)-pyrimidinone]
Plant response rating, Prickly Sida [1, 14]: 60
Plant response rating, Prickly Sida [1, 15]: 65
Plant response rating, Prickly Sida [1, 16]: 70
Plant response rating, Prickly Sida [1, 17]: 80
Plant response rating, Prickly Sida [1, 18]: 100
Plant response rating, Prickly Sida [1, 19]: 100
Plant response rating, Prickly Sida [1, 20]: 100
Plant response rating, Spanishneedles [2, 14]: 60
Plant response rating, Spanishneedles [2, 15]: 65
Plant response rating, Spanishneedles [2, 16]: 70
Plant response rating, Spanishneedles [2, 17]: 70
Plant response rating, Spanishneedles [2, 19]: 100
Plant response rating, Spanishneedles [2, 20]: 100
Plant response rating, Quackgrass [3, 14]: 35
Plant response rating, Quackgrass [3, 15]: 40
Plant response rating, Quackgrass [3, 16]: 70
Plant response rating, Quackgrass [3, 17]: 75
Plant response rating, Quackgrass [3, 19]: 85
Plant response rating, Quackgrass [3, 20]: 98
Plant response rating, Bermudagrass [4, 14]: 75
Plant response rating, Bermudagrass [4, 15]: 85
Plant response rating, Bermudagrass [4, 16]: 95
Plant response rating, Bermudagrass [4, 17]: 95
Plant response rating, Bermudagrass [4, 18]: 100
Plant response rating, Bermudagrass [4, 19]: 100
Plant response rating, Bermudagrass [4, 20]: 100
Plant response rating, Dayflower, VA [5, 14]: 35
Plant response rating, Dayflower, VA [5, 15]: 65
Plant response rating, Dayflower, VA [5, 16]: 70
Plant response rating, Dayflower, VA [5, 17]: 75
Plant response rating, Dayflower, VA [5, 18]: 100
Plant response rating, Dayflower, VA [5, 19]: 100
Plant response rating, Dayflower, VA [5, 20]: 100
Plant response rating, Sandbur [6, 14]: 75
Plant response rating, Sandbur [6, 15]: 75
Plant response rating, Sandbur [6, 16]: 75
Plant response rating, Sandbur [6, 17]: 80
Plant response rating, Sandbur [6, 19]: 100
Plant response rating, Sandbur [6, 20]: 100
Plant response rating, Groundsel ([7]; 31 g ai/ha, scale 0 to 100): 98
Plant response rating, Groundsel [7, 21]: 100
Plant response rating, Groundsel [7, 22]: 100
Plant response rating, Groundsel [7, 23]: 100
Plant response rating, Ragweed [8, 14]: 65
Plant response rating, Ragweed [8, 15]: 70
Plant response rating, Ragweed [8, 16]: 75
Plant response rating, Ragweed [8, 17]: 75
Plant response rating, Ragweed [8, 19]: 100
Plant response rating, Ragweed [8, 20]: 100
Plant response rating, Dallisgrass [9, 14]: 75
Plant response rating, Dallisgrass [9, 15]: 80
Plant response rating, Dallisgrass [9, 16]: 90
Plant response rating, Dallisgrass [9, 17]: 90
Plant response rating, Dallisgrass [9, 18]: 100
Plant response rating, Dallisgrass [9, 19]: 100
Plant response rating, Dallisgrass [9, 20]: 100
Plant response rating, Russian Thistle [10, 14]: 20
Plant response rating, Russian Thistle [10, 15]: 30
Plant response rating, Russian Thistle [10, 16]: 30
Plant response rating, Russian Thistle [10, 17]: 60
Plant response rating, Russian Thistle [10, 19]: 100
Plant response rating, Russian Thistle [10, 20]: 100
Plant response rating, Nightshade [11, 24]: 90
Plant response rating, Nightshade [11, 21]: 98
Plant response rating, Nightshade [11, 25]: 98
Nightshade plant response rating [11]: 98
Plant response rating, Sunflower [12, 24]: 80
Plant response rating, Sunflower [12, 21]: 85
Plant response rating, Sunflower [12, 25]: 95
Sunflower plant response rating [12]: 95
Plant response rating, Galium [13, 24]: 85
Plant response rating, Galium [13, 21]: 90
Plant response rating, Galium [13, 25]: 98
Galium plant response rating [13]: 100

CCCCn1c(-c2cc(F)cc(F)c2)ncc(C(=O)C2=C(O)C3CCC(C3)C2=O)c1=O (stereo not drawn) [Compound 245]
Plant response rating, Prickly Sida [1, 14]: 30
Plant response rating, Prickly Sida [1, 15]: 50
Plant response rating, Prickly Sida [1, 16]: 50
Plant response rating, Prickly Sida [1, 17]: 70
Plant response rating, Spanishneedles [2, 14]: 65
Plant response rating, Spanishneedles [2, 15]: 70
Plant response rating, Spanishneedles [2, 16]: 70
Plant response rating, Spanishneedles [2, 17]: 75
Plant response rating, Quackgrass [3, 14]: 20
Plant response rating, Quackgrass [3, 15]: 35
Plant response rating, Quackgrass [3, 16]: 40
Plant response rating, Quackgrass [3, 17]: 65
Plant response rating, Bermudagrass [4, 14]: 80
Plant response rating, Bermudagrass [4, 15]: 80
Plant response rating, Bermudagrass [4, 16]: 80
Plant response rating, Bermudagrass [4, 17]: 80
Plant response rating, Dayflower, VA [5, 14]: 20
Plant response rating, Dayflower, VA [5, 15]: 35
Plant response rating, Dayflower, VA [5, 16]: 65
Plant response rating, Dayflower, VA [5, 17]: 75
Plant response rating, Sandbur [6, 14]: 65
Plant response rating, Sandbur [6, 15]: 70
Plant response rating, Sandbur [6, 16]: 75
Plant response rating, Sandbur [6, 17]: 75
Plant response rating, Groundsel ([7]; 31 g ai/ha, scale 0 to 100): 95
Plant response rating, Groundsel [7, 21]: 100
Plant response rating, Groundsel [7, 22]: 100
Plant response rating, Groundsel [7, 23]: 100
Plant response rating, Ragweed [8, 14]: 70
Plant response rating, Ragweed [8, 15]: 75
Plant response rating, Ragweed [8, 16]: 75
Plant response rating, Ragweed [8, 17]: 75
Plant response rating, Dallisgrass [9, 14]: 65
Plant response rating, Dallisgrass [9, 15]: 75
Plant response rating, Dallisgrass [9, 16]: 80
Plant response rating, Dallisgrass [9, 17]: 85
Plant response rating, Russian Thistle [10, 14]: 25
Plant response rating, Russian Thistle [10, 15]: 60
Plant response rating, Russian Thistle [10, 16]: 60
Plant response rating, Russian Thistle [10, 17]: 70
Plant response rating, Nightshade [11, 24]: 98
Plant response rating, Nightshade [11, 21]: 100
Plant response rating, Nightshade [11, 25]: 100
Nightshade plant response rating [11]: 100
Plant response rating, Sunflower [12, 24]: 45
Plant response rating, Sunflower [12, 21]: 70
Plant response rating, Sunflower [12, 25]: 80
Sunflower plant response rating [12]: 95
Plant response rating, Galium [13, 24]: 20
Plant response rating, Galium [13, 21]: 60
Plant response rating, Galium [13, 25]: 95
Galium plant response rating [13]: 95
